# Measurements taken from patent US5096922A, “Macrocyclic antibodies” (Gesellschaft fur Biotechnologische Forschung mbH, priority 1985, dated 1992).
# Key:
# [1] = molecular target: T1, reverse transcriptase of Moloney Murine leucaemia virus (Moloney murine leukemia virus, UniProt P03355); experiment: inhibition of reverse transcriptase enzyme; format: biochemical; conditions: reverse transcriptase of MLV; method of Wu et al.; read-out: ID50 (dose that inhibits the RT activity by 50%) (converted)
# T1 construct: reverse transcriptase of Moloney Murine leucaemia virus
# Procedure: Proof of the antiviral activity of the compounds of formula I against retroviruses is shown by in vitro and in vivo tests, but especially by an in vitro test system in which the inhibition of the reverse transcriptase enzyme is determined quantitatively by said compounds.
# On poly A-oligo (dT), radioactively labelled TPP is hybridised with reverse transcriptase. The […] radioactivity is measured and serves as reference for the activity of the reverse transcriptase.
# The ID50 of the compounds of formula I is determined by using them in the test system in different concentrations.
# Sorangicin A is active against reverse transcriptase of Moloney Murine leucaemia virus; the ID50 [dose that inhibits the RT activity by 50%; method of Wu et al., Proc. Natl. Acad. Sci., 69, 3820 (1972)] for the reverse transcriptase of MLV is c. 7 μg/ml.
# [2] = system: Staphylococcus aureus Strain Wood 46 in human polymorphonuclear leucocytes; experiment: in vitro test on human polymorphonuclear leucocytes and Staphylococcus aureus Strain Wood 46; format: cell-based; conditions: S. aureus Strain Wood 46
# From the text: In the in vitro test on human polymorphonuclear leucocytes and Staphylococcus aureus Strain Wood 46, sorangicin A is effective against bacteria that occur intracellularly, e.g. staphylococcae.
smiles,measurement,setting,value
CC(=CC(C)CCCCC(=O)O)C1OC2C=CC1OC(=O)C=CC=CC=CC1OC3CC1OC(C=CCC1OC(CC(O)C1C)C(O)C(O)C=CCCC=CC2)C3C (stereo not drawn) [sorangicin A],IC50,[1],~8.67 µM
same,activity against bacteria that occur intracellularly,[2],effective
same,activity within leucocytes,[2],bactericidal activity
